Patent US7186731B2, “2-cyanopyrrolidinecarboxamide compound” (Astellas Pharma Inc., priority 2003, dated 2007)
Where a name gives a salt, the structure may show the parent alone.

How the values were obtained:
human plasma DPP-IV = biological target: T1, human plasma DPP-IV (Homo sapiens, UniProt P27487); assay: Inhibition Test of Human Plasma DPP-IV; assay type: biochemical; conditions: substrate H-glycine-proline-AMC, 20 minutes incubation at room temperature, fluorescence
T1 construct: from tissue; host or cells: human plasma
Method: Inhibition Test of Human Plasma DPP-IV
Briefly, 20 μL of human plasma were mixed with 20 μL of 80 mM MgCl2 in assay buffer (25 mM HEPES, 140 mM NaCl, 1% RIA-grade BSA, pH7.8), and were incubated in a room temperature for 60 minutes. Then the reaction was initiated by the addition of both 20 μL of test compounds and 20 μL of 0.2 mM substrate (H-glycine-proline-AMC; AMC is 7-amino-4-methylcoumarine), they were dissolved in the assay buffer.
After 20 minutes incubation in a room temperature (kept in the dark), fluorescence was measured (Excitation 380 nm, Emission 460 nm). A fluorescence-concentration curve of free AMC was obtained using AMC solution in the assay buffer with appropriate concentration. Plasma DPP-IV activities, with or without the test compounds, were expressed as the amount of product per minute per mL. The potency of the test compounds as DPP-IV inhibitor was expressed as IC50.

T1 sequence (P27487 39-766 limits assumed): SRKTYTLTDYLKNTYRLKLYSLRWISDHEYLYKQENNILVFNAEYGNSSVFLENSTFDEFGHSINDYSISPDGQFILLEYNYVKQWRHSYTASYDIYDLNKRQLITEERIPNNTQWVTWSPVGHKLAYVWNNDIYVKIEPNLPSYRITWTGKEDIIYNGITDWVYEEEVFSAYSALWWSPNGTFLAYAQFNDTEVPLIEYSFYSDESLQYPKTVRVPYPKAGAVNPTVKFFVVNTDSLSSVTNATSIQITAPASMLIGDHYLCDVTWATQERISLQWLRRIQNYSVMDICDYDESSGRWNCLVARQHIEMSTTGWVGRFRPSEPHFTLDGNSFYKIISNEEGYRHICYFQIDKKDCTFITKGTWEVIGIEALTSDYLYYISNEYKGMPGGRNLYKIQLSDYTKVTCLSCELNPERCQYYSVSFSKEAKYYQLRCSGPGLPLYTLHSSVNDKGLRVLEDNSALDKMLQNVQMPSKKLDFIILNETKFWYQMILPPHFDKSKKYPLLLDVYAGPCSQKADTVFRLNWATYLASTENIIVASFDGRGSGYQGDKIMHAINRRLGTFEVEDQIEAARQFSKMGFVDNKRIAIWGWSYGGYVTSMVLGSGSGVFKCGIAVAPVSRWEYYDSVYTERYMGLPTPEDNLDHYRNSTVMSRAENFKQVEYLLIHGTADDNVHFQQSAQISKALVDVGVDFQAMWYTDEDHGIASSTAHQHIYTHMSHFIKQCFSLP

SMILES	IC50 (human plasma DPP-IV) [nM]	melting point [°C]
N#C[C@@H]1CCCN1C(=O)[C@H]1N[C@@H]2C[C@H]1C[C@H]2O [Example 5-8, (2S)-1-{[(1R,3S,4S,6R)-6-hydroxy-2-azabicyclo[2.2.1]hept-3-yl]carbonyl}-2-pyrrolidinecarbonitrile hydrochloride]	8.7	
CC1(NCC(=O)N2C[C@@H](F)C[C@H]2C#N)CCOCC1 [Example 7-12, (2S,4S)-4-Fluoro-1-{[(4-methyltetrahydro-2H-pyran-4-yl)amino]acetyl}-2-pyrrolidinecarbonitrile]	15	
N#C[C@@H]1CCCN1C(=O)[C@H]1N[C@@H]2C[C@H]1C[C@H]2OCCO [Example 25-3, (2S)-1-{[(1R,3S,4S,6R)-6-(2-hydroxyethoxy)-2-azabicyclo[2.2.1]hept-3-yl]carbonyl}-2-pyrrolidinecarbonitrile hydrochloride]	4.5	
N#C[C@@H]1CCCN1C(=O)[C@H]1N[C@H]2CC[C@@H]1[C@H](O)C2 [Example 2-8, (2S)-1-{[(1S,3S,4S,5R)-5-hydroxy-2-azabicyclo[2.2.2]oct-3-yl]carbonyl}-2-pyrrolidinecarbonitrile hydrochloride]	8.5	
N#C[C@@H]1C[C@H](F)CN1C(=O)[C@H]1N[C@@H]2C[C@H]1C[C@H]2O [Example 45-3, (2S,4S)-4-Fluoro-1-{[(1R,3S,4S,6R)-6-hydroxy-2-azabicyclo[2.2.1]hept-3-yl]carbonyl}-2-pyrrolidinecarbonitrile hydrochloride]	4.7	
CC1(NCC(=O)N2C[C@@H](F)C[C@H]2C#N)CCN(c2cnccn2)CC1 [Example 10-8, (2S,4S)-4-Fluoro-1-({[4-methyl-1-(2-pyrazinyl)-4-piperidinyl]amino}acetyl)-2-pyrrolidinecarbonitrile]	13	166 to 167
